# Read-outs that look alike come from different tables or passages of the source.
# Assays:
# Test in all cases: Calcein AM viability assay, dilution-series retest
# TIP5/TERT/LT cells = format: cell-based, human; settings: Homo sapiens, 48 h, read-out: IC50, TIP5 TERT/LT
# From the text: (§1) In a third series, cell lines derived from independently prepared human TIP5 foreskin fibroblasts created by introducing cDNA constructs encoding hTERT, LT, ST and RASV12 (Lessnick et al., 2002, Cancer Cell 1, 393-401) were used. These cell lines were called, respectively: TIP5/TERT, TIP5/TERT/LT, TIP5/TERT/LT/ST, and TIP5/TERT/LT/ST/RAS^V12. In a fourth series, cell lines derived from TIP5 fibroblasts created by introducing cDNA constructs encoding hTERT, E6, E7, ST and RAS^V12 were used. These cell lines were named, respectively: TIP5/TERT/E6, TIP5/TERT/E6/E7, TIP5/TERT/E6/E7/ST, and TIP5/TERT/E6/E7/ST/RAS^V12. In this series, HPV E6 and E7, which inactivate p53 and RB, respectively, serve a similar function as LT in the previous series. However, by using HPV E6 and E7, Applicants were able to observe the effects of inactivating, separately and independently, p53 and RB. Results of a large-scale screen for compounds that display selective killing of these engineered tumorigenic cell lines are described in the examples that follow.
# (§2) Calcein acetoxylmethyl ester (AM) is a cell membrane-permeable, non-fluorescent compound that is cleaved by intracellular esterases to form the anionic, cell-impermeable, fluorescent compound calcein. Viable cells are stained by calcein because of the presence of intracellular esterases and because the intact plasma membrane prevents fluorescent calcein from leaking out of cells (Wang et al., 1993, supra). Cells were seeded in 384-well plates using a Zymark Sciclone ALH, treated with each compound in triplicate at 4 μg/mL in the primary screen for two days, washed with phosphate-buffered saline on a Packard Minitrak with a 384-well washer and incubated for four hours with 0.7 μg/mL calcein (Molecular Probes). Total fluorescence intensity in each well was recorded on a Packard Fusion platereader, and converted to a percent inhibition of signal by subtracting the instrument background and dividing by the average signal obtained when cells were not treated with any compound.
# (§3) Replica daughter plates were prepared with a Zymark Sciclone ALH and integrated Twister II by diluting stock plates 50 fold in medium lacking serum and pen/strep to obtain a compound concentration in daughter plates of 80 μg/ml with 2% DMSO. Assay plates were prepared by seeding cells in black, clear bottom 384-well plates in columns 1-23 (6000 cells/well in 57 μl) using a syringe bulk dispenser. Columns 3-22 were treated with compounds from a daughter library plate by transferring 3 μl from the daughter library plate using 384-position fixed cannula array. The final compound concentrations in assay plates were thus 4 μg/ml. The assay plates were incubated for 48 hours at 37° C. in humidified incubator containing 5% CO2. Plate processing for the calcein AM viability assay was performed using an integrated Minitrak/Sidetrak robotic system from Packard Bioscience (Perkin Elmer). Assay plates were washed with phosphate buffered saline, and 20 μl of calcein AM (0.7 μg/ml) per well was added. Plates were incubated at room temperature for 4 hours. Fluorescence intensity was determined using a Fusion platereader with filters centered on an excitation of 485 nm and an emission of 535 nm.
# (§4) Compounds to be retested were purchased from manufacturers. Stocks were prepared in DMSO at a concentration of 1 mg/ml in 384-well polypropylene plates with a 16-point, two-fold dilution dose curve of each compound in a column, in duplicates. Column 1-2 and 23-24 were left empty for controls. Daughter retest plates were prepared from stock retest plate by diluting 66.6 fold in DMEM in 384-well deep-deep well plates (4.5 μl transfer into 300 μl). Cells were seeded at a density of 6000 per well in 40 μl, and 20 μl was added from a daughter retest plate. The plates were incubated for two days at 37° C. with 5% CO2.
# (§5) Mean RFU (relative fluorescence units) for untreated cells was calculated by averaging columns 1, 2, and 23 (wells with cells but lacking compounds). […]
# [1] = tested on: TIP5/TERT/E6/E7/ST/RAS^V12 cells; format: cell-based, human; settings: Homo sapiens, 48 h, read-out: IC50, TIP5-TERT/E6E7 ST/Ras^V12
# From the text: as §1, §2, §3, §4, §5
# TIP5/TERT/E6/E7 cells = format: cell-based, human; settings: for IC50: Homo sapiens, 48 h, read-out: IC50, TIP5-TERT/E6E7
# From the text: as §1, §2, §3, §4, §5
# [2] = tested on: TIP5/TERT/LT/ST/RAS^V12 cells; format: cell-based, human; settings: Homo sapiens, 48 h, read-out: IC50, TIP5 TERT/LT/ST/Ras^V12
# From the text: as §1, §2, §3, §4, §5
# TIP5/TERT cells = format: cell-based, human; settings: Homo sapiens, 48 h, read-out: IC50, TIP5-TERT
# From the text: as §1, §2, §3, §4, §5
# TIP5/TERT/E6/E7/ST cells = format: cell-based, human; settings: Homo sapiens, 48 h, read-out: IC50, TIP5-TERT/E6E7 ST
# From the text: as §1, §2, §3, §4, §5
# TIP5/TERT/LT/ST cells = format: cell-based; settings: Homo sapiens, 48 h, read-out: IC50, TIP5 TERT/LT/ST
# From the text: as §1, §2, §3, §4, §5
# TIP5/TERT/E6 cells = format: cell-based; settings: Homo sapiens, 48 h, read-out: IC50, TIP-TERT/E6
# From the text: as §1, §2, §3, §4, §5
# [3] = TIP5 TERT/LT cells, 16-point two-fold dilution, two days
# [4] = TIP5-TERT/E6E7/ST/Ras^V12 cells, 16-point two-fold dilution, two days
# [5] = TIP5-TERT/E6E7 cells, 16-point two-fold dilution, two days
# [6] = TIP5 TERT/LT/ST/Ras^V12 cells, 16-point two-fold dilution, two days
# [7] = TIP5-TERT cells, 16-point two-fold dilution, two days
# [8] = TIP5-TERT/E6E7/ST cells, 16-point two-fold dilution, two days
# [9] = TIP5 TERT/LT/ST cells, 16-point two-fold dilution, two days
# [10] = TIP-TERT/E6 cells, 16-point two-fold dilution, two days
SMILES,IC50 (TIP5/TERT/LT cells),IC50 [1],IC50 (TIP5/TERT/E6/E7 cells),IC50 [2],IC50 (TIP5/TERT cells),IC50 (TIP5/TERT/E6/E7/ST cells),IC50 (TIP5/TERT/LT/ST cells),IC50 (TIP5/TERT/E6 cells),IC50 (TIP5/TERT/LT cells; [3]),"IC50 [1, 4]",activity in cells lacking RB function (via expression of E7) (TIP5/TERT/E6/E7 cells),IC50 (TIP5/TERT/E6/E7 cells; [5]),"IC50 [2, 6]",IC50 (TIP5/TERT cells; [7]),IC50 (TIP5/TERT/E6/E7/ST cells; [8]),IC50 (TIP5/TERT/LT/ST cells; [9]),IC50 (TIP5/TERT/E6 cells; [10])
COc1ccc(C[C@H]2C(=O)N[C@@H](C)C(=O)N(C)[C@@H]3C(=O)N(C)[C@@H](Cc4ccc(O)c(c4)Oc4ccc(cc4)[C@@H]3O)C(=O)N[C@H](C)C(=O)N[C@@H](C)C(=O)N2C)cc1 [Bouvardin],0.312 µg/mL,0.078 µg/mL,0.039 µg/mL,0.039 µg/mL,> 5 µg/mL,0.039 µg/mL,0.039 µg/mL,0.078 µg/mL,–,–,–,–,–,–,–,–,–
CC[C@@]1(O)C(=O)OCc2c1cc1n(c2=O)Cc2cc3ccccc3nc2-1 [Camptothecin],–,–,–,–,–,–,–,–,> 5 µg/mL,0.156 µg/mL,partially active,0.625 µg/mL,0.156 µg/mL,> 5 µg/mL,0.156 µg/mL,0.156 µg/mL,> 5 µg/mL
COc1cccc2c1C(=O)c1c(O)c3c(c(O)c1C2=O)C[C@@](O)(C(C)=O)C[C@@H]3O[C@H]1C[C@H](N)[C@H](O)[C@H](C)O1 [Daunorubicin],1.25 µg/mL,0.625 µg/mL,0.625 µg/mL,0.825 µg/mL,> 5 µg/mL,0.625 µg/mL,0.625 µg/mL,5 µg/mL,–,–,–,–,–,–,–,–,–
COc1cccc2c1C(=O)c1c(O)c3c(c(O)c1C2=O)C[C@@](O)(C(=O)CO)C[C@@H]3O[C@H]1C[C@H](N)[C@H](O)[C@H](C)O1 [Doxorubicin],–,–,–,–,–,–,–,–,1.25 µg/mL,1.25 µg/mL,–,1.25 µg/mL,0.625 µg/mL,> 5 µg/mL,1.25 µg/mL,0.625 µg/mL,5 µg/mL
CS[C@H]1SC[C@H]2C(=O)N(C)[C@@H](C(C)C)C(=O)OC[C@@H](NC(=O)c3cnc4ccccc4n3)C(=O)N[C@@H](C)C(=O)N(C)[C@@H]1C(=O)N(C)[C@@H](C(C)C)C(=O)OC[C@@H](NC(=O)c1cnc3ccccc3n1)C(=O)N[C@@H](C)C(=O)N2C [Echinomycin],5 µg/mL,0.0048 µg/mL,0.048 µg/mL,0.0024 µg/mL,> 5 µg/mL,0.048 µg/mL,0.0048 µg/mL,> 5 µg/mL,–,–,–,–,–,–,–,–,–
CCOc1ccccc1-n1c(C(C)N2CCN(C(=O)COc3ccc(Cl)cc3)CC2)nc2ccccc2c1=O (centres unmarked) [Erastin],–,–,–,–,–,–,–,–,> 5 µg/mL,5 µg/mL,–,> 5 µg/mL,2.5 µg/mL,> 5 µg/mL,> 5 µg/mL,5 µg/mL,> 5 µg/mL
O=C1c2c(O)ccc(O)c2C(=O)c2c(NCCNCCO)ccc(NCCNCCO)c21 [Mitoxantrone],–,–,–,–,–,–,–,–,1.25 µg/mL,1.25 µg/mL,–,0.625 µg/mL,1.25 µg/mL,> 5 µg/mL,0.625 µg/mL,0.625 µg/mL,1.25 µg/mL
NC(=O)c1cn([C@@H]2O[C@H](CO)[C@@H](O)[C@H]2O)c2ncnc(N)c12 [Sangivamycin],0.312 µg/mL,0.078 µg/mL,0.078 µg/mL,0.078 µg/mL,1.25 µg/mL,0.078 µg/mL,0.039 µg/mL,0.156 µg/mL,–,–,–,–,–,–,–,–,–

# — patent US20050032124A1, “Identification of genotype-selective agents for treating Huntington's disease” (priority 2003, published 2005)
